Measurements from patent US20230000865A1, “PHARMACEUTICAL COMPOSITION FOR THE TREATMENT OF PULMONARY VASCULAR DISEASE AND/OR CARDIAC DYSFUNCTION IN FONTAN-PALLIATED PATIENTS” (ACTELION PHARMACEUTICALS LTD, priority 2019, published 2023).

What was measured:
[1] = preoperative Fontan candidates with mild pulmonary hypertension; cited from earlier work
ET receptors = conditions: cited from earlier work
BCRP transporters = target: T1, BCRP transporters (Homo sapiens, UniProt Q9UNQ0); assay: Drug-drug interaction, pharmacokinetics of rosuvastatin; assay type: in vivo; conditions: for Drug-Drug Interaction observed: in vivo
T1 construct: from tissue; host or cells: in vivo: gut, liver canalicular membrane, kidney
T1 sequence (Q9UNQ0 1-655): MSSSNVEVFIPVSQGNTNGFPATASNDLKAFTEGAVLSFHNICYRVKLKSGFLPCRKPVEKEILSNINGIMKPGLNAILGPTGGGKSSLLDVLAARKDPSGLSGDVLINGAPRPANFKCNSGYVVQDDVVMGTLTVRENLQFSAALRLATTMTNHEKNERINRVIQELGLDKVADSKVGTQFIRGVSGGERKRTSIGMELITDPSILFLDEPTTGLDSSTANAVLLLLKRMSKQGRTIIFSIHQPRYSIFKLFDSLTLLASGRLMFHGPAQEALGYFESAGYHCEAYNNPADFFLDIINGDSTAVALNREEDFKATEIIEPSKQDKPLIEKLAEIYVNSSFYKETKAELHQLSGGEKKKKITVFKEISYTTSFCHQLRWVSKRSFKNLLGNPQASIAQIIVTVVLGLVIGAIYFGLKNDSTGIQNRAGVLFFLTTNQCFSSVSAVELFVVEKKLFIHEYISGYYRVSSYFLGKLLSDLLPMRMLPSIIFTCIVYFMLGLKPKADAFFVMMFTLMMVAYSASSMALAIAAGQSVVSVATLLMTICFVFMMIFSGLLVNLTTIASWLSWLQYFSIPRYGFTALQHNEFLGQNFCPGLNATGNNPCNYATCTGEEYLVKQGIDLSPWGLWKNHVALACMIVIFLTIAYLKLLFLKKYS
Source text: BCRP is an efflux pump located in the gut, liver canalicular membrane, and kidney, and is exposed to intracellular drug concentrations in the liver and the kidney.

[2] = cited from earlier work
human PXR = target: T2, human PXR (Homo sapiens, UniProt O75469); assay: Activation of human PXR; assay type: cell-based
T2 sequence (O75469 1-434): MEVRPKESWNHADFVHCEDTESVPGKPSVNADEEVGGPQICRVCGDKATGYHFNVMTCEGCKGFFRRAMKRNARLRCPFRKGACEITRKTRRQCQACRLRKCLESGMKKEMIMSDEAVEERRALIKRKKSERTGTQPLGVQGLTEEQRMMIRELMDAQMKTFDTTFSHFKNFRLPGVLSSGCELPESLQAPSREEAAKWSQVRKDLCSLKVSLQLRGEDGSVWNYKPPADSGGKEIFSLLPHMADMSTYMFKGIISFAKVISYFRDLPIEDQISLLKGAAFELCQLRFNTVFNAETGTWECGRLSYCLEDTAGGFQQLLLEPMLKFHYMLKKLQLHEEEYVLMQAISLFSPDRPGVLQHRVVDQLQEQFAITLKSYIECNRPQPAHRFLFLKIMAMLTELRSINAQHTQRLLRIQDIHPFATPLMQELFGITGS
Source text: In human hepatocytes, both compounds elicited concentration-dependent increases in CYP3A4 mRNA and enzyme activity.

[3] = long-term treatment, patient with plastic bronchitis following Fontan; cited from earlier work
[4] = patients with PAH; cited from earlier work
[5] = early postoperative phase; cited from earlier work
[6] = Example 1: dose-response (Emax) analysis of hemoglobin change, pooled Phase I studies in healthy volunteers; assay type: in vivo, human
Source text: Hemoglobin measurements were pooled from 3 Phase I clinical studies in healthy volunteers: • Study AC-055-102: Investigation of the PK, PD, safety and tolerability of macitentan in male subjects (the study protocol is described in the following publication: Sidharta et al., Safety, tolerability, pharmacokinetics, and pharmacodynamics of macitentan, an endothelin receptor antagonist, in an ascending multiple-dose study in healthy subjects. J. Clin. Pharmacol. (2013), 53(11), 1131-1138) • Study AC-055-116: Investigation of the PK, PD, safety and tolerability of macitentan in male Japanese subjects (the study protocol is described in the following publication: Yokoyama et al., Tolerability, Safety, Pharmacokinetics, and Pharmacodynamics of Macitentan, a New Endothelin Receptor Antagonist, in Healthy Japanese Male Subjects. Rinsho yakuri/Japanese Journal of Clinical Pharmacology and Therapeutics (2016), 47, 143-150) • Study AC-055-117: Investigation of the PK, PD, safety and tolerability of macitentan in male Korean subjects (the study protocol is described in the following publication: Ahn et al., Pharmacokinetic-pharmacodynamic relationships of macitentan, a new endothelin receptor antagonist, after multiple dosing in healthy Korean subjects, Am. […]
Hemoglobin concentrations measured in the morning of Day 11 of macitentan treatment and at baseline on Day −1 were used in the analysis. […]

[7] = parameters: key to Frequency observed with macitentan 10 mg: Photophobia: Very common: very common (≥1/10); Common: common (≥1/100 to <1/10); Uncommon: uncommon (≥1/1,000 to <1/100); rare (≥1/10,000 to <1/1,000); very rare (<1/10,000); Not known: not known (cannot be estimated from the available data); conditions: cited from earlier work
[8] = Example 2: Phase 1 safety study of 75 mg qd macitentan in healthy male subjects, with and without up-titration; assay type: in vivo, human
Method: This is a single-sequence, open-label, single-center, Phase 1 study in healthy male subjects. The study assessed the effect of 75 mg qd administration of macitentan. The study includes a screening phase of 21 days before the first macitentan administration, followed by an open-label treatment phase. Randomization was not used and subjects received the same treatment.
29 subjects were enrolled.
Administration of 75 mg qd macitentan started on Day 1. Macitentan was administered every day in the morning between 8:00 and 11:00 with 240 mL of noncarbonated water. One 75-mg macitentan film-coated tablet was thus administered as multiple qd oral doses under fed conditions.
Subjects were planned to take macitentan 75 mg for 15 days. However the study was interrupted on the morning of day 8, i.e. when subjects had received 7 doses of macitentan 75 mg.
Macitentan was administered in an up-titration regimen in the morning between 8:00 and 11:00 with 240 mL of noncarbonated water. One macitentan film-coated tablet (10 mg, 37.5 mg or 75 mg) was administered as multiple qd oral doses under fed conditions on Days 1-9 and Days 11-12, and under fasted conditions on Days 10 and 13. The up-titration regimen consists of 2 qd doses of 10 mg macitentan and 3 qd doses of 37.5 mg macitentan followed by 8 qd doses of 75 mg macitentan. On Days −4, −3, 10 and 13 (i.e., the days when dosing occurred under fasted conditions), no fluid intake apart from the water taken at the time of macitentan administration was allowed from 1 hour before until 1 hour after administration of macitentan.
All reported AEs with onset during the treatment phase were included in the analysis. The effects on cardiovascular variables were evaluated and the following variables were collected: PR (ms), QRS (ms), QT (ms), QTcB (ms), QTcF (ms), heart rate (bpm), and RR. The normal range for vital signs is defined as follows: • Systolic blood pressure: 100-140 mmHg • Diastolic blood pressure: 60-90 mmHg • Pulse rate: 45-90 bpm • Respiratory rate: 8-20 per minute • Body temperature: 35.0° C. to 37.5° C.
An AE is any untoward medical occurrence, i.e., any unfavorable and unintended sign (including an abnormal finding), symptom, or disease temporally associated with the use of macitentan. A treatment-emergent AE is any occurrence that is new in onset or aggravated in severity from the baseline condition. The following are used to assess all AEs: • Related: There is a reasonable causal relationship between macitentan administration and the AE. • Not Related: There is not a reasonable causal relationship between macitentan administration and the AE.
An assessment of AE severity grade was made using the following general categorical descriptors: • Mild: Awareness of symptoms that are easily tolerated, causing minimal discomfort and not interfering with everyday activities. • Moderate: Sufficient discomfort is present to cause interference with normal activity. • Severe: Extreme distress, causing significant impairment of functioning or incapacitation. Prevents normal everyday activities.

[9] = 75 mg qd without up-titration, 6 subjects
[10] = 75 mg qd, healthy male subjects
[11] = up-titration 10/37.5/75 mg qd, 6 subjects

Q: For `CC#CCC(C)[C@H](O)/C=C/[C@@H]1[C@H]2c3cccc(CCCC(=O)O)c3O[C@H]2C[C@H]1O` (mixture of isomers) [beraprost], which “effect on mean pulmonary artery pressure (PAP) and PVR” value [1] is on record?
A: reduces

Q: Which “affinity for the ET receptors compared with parent compound” value (ET receptors) does the source give for `NS(=O)(=O)Nc1ncnc(OCCOc2ncc(Br)cn2)c1-c1ccc(Br)cc1` [ACT-132577] here?
A: lower affinity

Q: And the “Drug-Drug Interaction observed” value (BCRP transporters)?
A: No Drug-Drug Interaction

Q: What about the half-life ([2]; in humans) of the same compound?
A: approximately 48 hours

Q: And the “plasma concentrations compared with macitentan” value ([2]; in vivo)?
A: higher plasma concentrations than macitentan

Q: And the “time of peak plasma concentration after the first dose” value ([2]; metabolite after macitentan administration)?
A: about 30 hours

Q: And the EC50 (human PXR)?
A: 7.2 to 8.7 µM

Q: What does the source list for `COc1ccccc1Oc1c(NS(=O)(=O)c2ccc(C(C)(C)C)cc2)nc(-c2ncccn2)nc1OCCO` [bosentan]?
A: symptoms, aortic oxygen saturation, functional class, exercise capacity, Borg dyspnoea index, mean PAP, pulmonary blood flow and PVR [3]: improved; exercise capacity, functional class, health-related quality of life and haemodynamic parameters (including PVR and PAP) [4]: improve

Q: Which “rebound effect after inhaled nitric oxide (NO) cessation” value [5] does the source give for `CCCCC[C@H](O)/C=C/[C@@H]1[C@H]2C/C(=C/CCCC(=O)O)O[C@H]2C[C@H]1O` [epoprostenol] here?
A: prevent the rebound effect

Q: Which “maximum effect on hemoglobin decrease (Emax)” value ([6]; Day 11 vs baseline Day -1, nonlinear regression) does the source give for `CCCNS(=O)(=O)Nc1ncnc(OCCOc2ncc(Br)cn2)c1-c1ccc(Br)cc1` [macitentan, propylsulfamic acid [5-(4-bromo-phenyl)-6-[2-(5-bromo-pyrimidin-2-yloxy)-ethoxy]-pyrimidin-4-yl]-amide] here?
A: around 1.23 g/dL

Q: And the “dose at which the effect on hemoglobin decrease plateaus” value ([6]; FIG. 1)?
A: 10 mg

Q: What about the “Frequency observed with macitentan 10 mg: Flushing/feeling of warmth/redness of face and/or hands” value [7] of the same compound?
A: Uncommon (uncommon (≥1/1,000 to <1/100))

Q: What about the “Frequency observed with macitentan 10 mg: Headache” value [7] of the same compound?
A: Very common (very common (≥1/10))

Q: And the “Frequency observed with macitentan 10 mg: Photophobia” value [7]?
A: Not known

Q: And the “Frequency observed with macitentan 10 mg: Sinusitis/rhinitis/nasal congestion” value [7]?
A: Common (common (≥1/100 to <1/10))

Q: What about the “Drug-Drug Interaction observed” value (BCRP transporters) of the same compound?
A: No Drug-Drug Interaction

Q: And the “effect on the pharmacokinetics of 1 mg rosuvastatin” value (BCRP transporters; macitentan 10 mg per day o.d.)?
A: has not shown any effect

Q: And the “steady state is reached” value ([2]; in humans, day of administration)?
A: by the third day

Q: And the half-life ([2]; in humans)?
A: about 16 hours

Q: What about the “absorption into the plasma” value ([2]; in vivo) of the same compound?
A: absorbed slowly

Q: And the EC50 (human PXR)?
A: 1.1 to 1.2 µM

Q: And the “N with Flushing/feeling of warmth/redness of face and/or hands (No titration)” value [8, 9]?
A: 4

Q: What about the “N with Headache (No titration)” value [8, 9] of the same compound?
A: 6

Q: And the “N with Photophobia (No titration)” value [8, 9]?
A: 3

Q: And the “N with Sinusitis/rhinitis/nasal congestion (No titration)” value [8, 9]?
A: 5

Q: And the “Severity of AEs (No titration): Photophobia” value [8, 9]?
A: All mild

Q: What about the “Severity of AEs (No titration): Sinusitis/rhinitis/nasal congestion” value [8, 9] of the same compound?
A: All mild

Q: And the “overall severity of AEs” value [8, 10]?
A: mainly mild

Q: And the reduction in hemoglobin [8, 10]?
A: ≤ 2 g/dL

Q: What about the “study day from which AEs were reported” value [8, 10] of the same compound?
A: ≥ 2 days

Q: And the “vital signs, ECG and lab parameters” value [8, 10]?
A: no clinically significant changes

Q: And the “resolution of AEs” value ([8]; Four days after stopping macitentan)?
A: most of the AEs resolved

Q: And the “Duration of AE (With titration): Sinusitis/rhinitis/nasal congestion” value [8, 11]?
A: < 24 h

Q: And the “N with Flushing/feeling of warmth/redness of face and/or hands (With titration)” value [8, 11]?
A: 0

Q: What about the “N with Headache (With titration)” value [8, 11] of the same compound?
A: 6

Q: What about the “N with Photophobia (With titration)” value [8, 11] of the same compound?
A: 0

Q: And the “N with Sinusitis/rhinitis/nasal congestion (With titration)” value [8, 11]?
A: 1

Q: What about the “Severity of AEs (With titration): Sinusitis/rhinitis/nasal congestion” value [8, 11] of the same compound?
A: Mild, less than

Q: What about the completion of treatment ([8]; up-titration regimen cohort) of the same compound?
A: All subjects completed treatment

Q: What about the “tolerability of 75 mg macitentan with up-titration regimen” value ([8]; up-titration vs no up-titration) of the same compound?
A: improved tolerability
